According to paper PMC10739574 (Bioconjugate Chemistry, 2023):
Values belong to the compound of their own block, whether it stands above or below them.

Biological target: Recombinant FKBP12 (Homo sapiens, UniProt P62942)
Test: Pure protein target engagement assay
Assay type: binding

Chain of Recombinant FKBP12 (P62942 whole entry): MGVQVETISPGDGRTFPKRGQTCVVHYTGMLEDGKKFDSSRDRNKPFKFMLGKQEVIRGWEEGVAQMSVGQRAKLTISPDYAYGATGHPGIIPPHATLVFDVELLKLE

Fluorescent intensity of the bands (crude probes 10 µM, comparison): brighter than crude 3
Structure (SMILES): C#CCCC1(CC[C@H](NC(=O)NCCCCCCNC(=O)NCCNC(=O)COc2cccc([C@@H](CCc3ccc(OC)c(OC)c3)OC(=O)[C@H]3CCCN3C(=O)C(=O)C(C)(C)CC)c2)C(N)=O)N=N1.O=C(O)C(F)(F)F [Compound 6]

Labeling of FKBP12 in dilution series (8-point, 5-fold dilution series, UV irradiated): Dose-dependent labeling
Structure (SMILES): C#CCCC1(CC[C@H](NC(=O)NCCCCCCNC(=O)NCCNC(=O)COc2cccc([C@@H](CCc3ccc(OC)c(OC)c3)OC(=O)[C@@H]3CCCCN3C(=O)C(=O)C(C)(C)CC)c2)C(N)=O)N=N1.O=C(O)C(F)(F)F [Compound 3]

Structure (SMILES): CO[C@H]1C[C@@H]2CC[C@@H](C)[C@@](O)(O2)C(=O)C(=O)N2CCCC[C@H]2C(=O)O[C@H]([C@H](C)C[C@@H]2CC[C@@H](O)[C@H](OC)C2)CC(=O)[C@H](C)/C=C(\C)[C@@H](O)[C@@H](OC)C(=O)[C@H](C)C[C@H](C)/C=C/C=C/C=C/1C [rapamycin, reference compound]
Competition of PAL probe interaction with FKBP12 (rapamycin 10 µM pretreatment, purified and crude probes 10 µM): prevented interaction with the PAL probes

Nonspecific labeling of FKBP12 (crude linker, 10 and 40 µM, negative control): not seen
Structure (SMILES): C#CCCC1(CC[C@H](NC(=O)NCCCCCCNC(=O)NCCN)C(N)=O)N=N1 [Compound 7, (S)-16-amino-2-(2-(3-(but-3-yn-1-yl)-3H-diazirin-3-yl)ethyl)-4,13-dioxo-3,5,12,14-tetraazahexadecanamide]
